What was measured:
[1] = molecular target: T1, plasma dipeptidylpeptidase IV (Homo sapiens, UniProt P27487); assay: In vitro dipeptidylpeptidase IV inhibition (H-Gly-Pro-AMC hydrolysis by plasma, fluorometry); assay type: biochemical; conditions: plasma diluted 8-fold, H-Gly-Pro-AMC.HBr substrate, room temperature, 20 minutes
T1 construct: 20 μL of plasma diluted 8-fold with saline in a well of a 96-well flat bottom plate; from tissue
Description: The concentration of free 7-amino-4-methyl-coumarin (AMC) generated by hydrolysis of H-Gly-Pro-AMC.HBr substrate by plasma dipeptidylpeptidase IV was determined by fluorometry.
A 20 μL of buffer (25 mmol/L hepes, 140 mmol/L sodium chloride, 1% bovine serum albumin, 80 mmol/L magnesium chloride hexahydrate, pH 7.4) containing each compound was added to 20 μL of plasma diluted 8-fold with saline in a well of a 96-well flat bottom plate. The plate was left at room temperature for 5 minutes and 10 μL of 0.1 mmol/L H-Gly-Pro-AMC.HBr solution was added to each well to initiate the reaction. […] Using a fluorescent plate reader, the free AMC concentration was determined by exciting the samples at 355 nm and measuring the fluorescence intensity at 460 nm.

[2] = molecular target: T2, plasma dipeptidylpeptidase IV (Mus musculus, UniProt P28843); assay: Inhibition of plasma dipeptidylpeptidase IV activity in mice by oral administration; assay type: in vivo; conditions: male ICR mice, 0.1 mg/mL suspension at 10 mL/kg, 30 minutes after administration
T2 construct: The blood samples were centrifuged at 6000 rpm for 2 minutes to separate plasma; from tissue; host or cells: plasma of male ICR mice (Charles River Laboratories Japan)
T2 sequence (P28843 37-760 limits assumed): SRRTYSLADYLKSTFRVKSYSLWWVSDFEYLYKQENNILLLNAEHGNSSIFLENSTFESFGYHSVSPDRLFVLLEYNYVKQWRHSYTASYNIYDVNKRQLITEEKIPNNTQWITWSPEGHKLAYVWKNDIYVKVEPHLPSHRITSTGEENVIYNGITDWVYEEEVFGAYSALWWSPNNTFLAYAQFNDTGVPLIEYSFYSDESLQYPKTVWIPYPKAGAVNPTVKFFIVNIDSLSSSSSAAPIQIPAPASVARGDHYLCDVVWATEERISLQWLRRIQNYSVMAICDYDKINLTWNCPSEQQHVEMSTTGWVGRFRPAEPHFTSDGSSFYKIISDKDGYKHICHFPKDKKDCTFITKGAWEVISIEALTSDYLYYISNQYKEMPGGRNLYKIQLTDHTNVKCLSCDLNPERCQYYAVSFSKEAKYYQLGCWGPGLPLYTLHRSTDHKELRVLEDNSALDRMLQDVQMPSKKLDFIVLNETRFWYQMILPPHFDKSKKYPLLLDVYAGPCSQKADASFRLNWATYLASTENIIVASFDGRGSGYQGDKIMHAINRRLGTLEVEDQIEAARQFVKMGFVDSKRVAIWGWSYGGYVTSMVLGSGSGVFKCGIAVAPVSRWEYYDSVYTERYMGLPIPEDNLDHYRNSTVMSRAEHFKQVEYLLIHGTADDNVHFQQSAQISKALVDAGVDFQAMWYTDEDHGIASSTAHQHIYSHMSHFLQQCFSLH
Description: Each compound was suspended in 0.3% sodium carboxymethylcellulose to a concentration of 0.1 mg/mL. The preparation was orally administered to 8 weeks old male ICR mice (Charles River Laboratories Japan) at a dose of 10 mL/kg. Using an EDTA 2K-treated capillary tube, blood samples were collected from the tail vein before administration and 30 minutes after administration. The blood samples were centrifuged at 6000 rpm for 2 minutes to separate plasma. […] The inhibition was determined from the decrease in the enzymatic activity from the initial activity (% inhibition={(activity before administration−activity after administration)/(activity before administration)}×100).

T1 sequence (P27487 39-766 limits assumed): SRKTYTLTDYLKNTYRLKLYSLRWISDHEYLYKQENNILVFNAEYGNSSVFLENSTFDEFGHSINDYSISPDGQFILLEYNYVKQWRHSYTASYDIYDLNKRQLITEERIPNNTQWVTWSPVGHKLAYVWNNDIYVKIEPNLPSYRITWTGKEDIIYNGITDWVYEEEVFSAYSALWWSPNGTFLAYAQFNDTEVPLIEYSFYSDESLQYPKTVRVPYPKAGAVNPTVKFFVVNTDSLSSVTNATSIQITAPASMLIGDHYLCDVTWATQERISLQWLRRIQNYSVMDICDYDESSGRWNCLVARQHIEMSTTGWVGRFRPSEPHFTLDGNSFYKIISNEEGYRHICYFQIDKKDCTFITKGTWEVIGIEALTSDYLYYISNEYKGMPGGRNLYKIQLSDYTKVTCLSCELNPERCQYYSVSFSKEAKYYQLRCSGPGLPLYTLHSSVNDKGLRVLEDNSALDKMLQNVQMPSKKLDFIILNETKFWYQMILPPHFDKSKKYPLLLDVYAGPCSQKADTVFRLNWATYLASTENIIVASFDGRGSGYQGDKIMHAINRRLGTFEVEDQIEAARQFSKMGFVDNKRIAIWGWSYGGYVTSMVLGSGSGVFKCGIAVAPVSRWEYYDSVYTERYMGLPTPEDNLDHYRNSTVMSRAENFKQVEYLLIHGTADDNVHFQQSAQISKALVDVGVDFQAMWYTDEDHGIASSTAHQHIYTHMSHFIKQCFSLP

Row | IC50 [1] | inhibition at 1 mg/kg [2] | Compound
1 | 3.1 nM | – | N#C[C@@H]1C[C@H](F)CN1C(=O)CNC12CCC(C(=O)O)(CC1)CC2 [Example 1, (2S,4S)-1-[[N-(4-carboxybicyclo[2,2,2]oct-1-yl)amino]acetyl]-4-fluoropyrrolidine-2-carbonitrile]
2 | 0.25 nM | 100% | CC12CCC(NCC(=O)N3C[C@@H](F)C[C@H]3C#N)(CC1)CC2 [Example 3, (2S,4S)-1-[[N-(4-methylbicyclo[2,2,2]oct-1-yl)amino]acetyl]-4-fluoropyrrolidine-2-carbonitrile]
3 | 1.1 nM | – | N#C[C@@H]1C[C@H](F)CN1C(=O)CNC12CCC(CO)(CC1)CC2 [Example 5, (2S,4S)-1-[[N-(4-hydroxymethylbicyclo[2,2,2]oct-1-yl)amino]acetyl]-4-fluoropyrrolidine-2-carbonitrile]
4 | – | 91% | N#C[C@@H]1C[C@H](F)CN1C(=O)CNC12CCC(F)(CC1)CC2 [Example 7, (2S,4S)-1-[[N-(4-fluorobicyclo[2,2,2]oct-1-yl)amino]acetyl]-4-fluoropyrrolidine-2-carbonitrile]
